# Measurements: patent EP0040696B1, “Aminothiadiazoles as gastric secretion inhibitors” (Merck & Co., Inc., priority 1980, dated 1981)
# What was measured:
# gastric secretion = assay: Gastric secretion inhibitory activity of intermediate compounds (test not specified)
# Source text: Thus, such intermediate compounds are deemed to constitute part of this invention.
# [1] = tested on: histamine evoked gastric secretion; assay: Inhibition of histamine evoked gastric secretion in dogs with a chronic gastric fistula; assay type: in vivo, female beagle dogs; details: Canis lupus familiaris, iv, 0.5 h, read-out: IV ED50 (mg/kg) Total acid output
# Protocol: […] Studies are performed in female beagle dogs with a chronic gastric fistula. The test compounds are administered i.v. at 0 min. Gastric secretion is stimulated by administration of a maximal secretory dose of histamine dihydrochloride ([…], base, s.c.) at 0 min. Gastric output is collected by gravity drainage for three 30 min periods (0-30, 30-60 and 60-90 min). Output volume (ml) is measured and an aliquot is titrated to pH 7 to determine acid concentration (titratable acid mEq/L); total acid output (mEq) is calculated as the product of volume and acid concentration. […]. Percent.inhibition of volume, acid concentration and total acid output is calculated relative to a placebo trial in the same animals; ED50 values are determined by linear regression analysis.
SMILES,gastric secretion inhibitory activity (gastric secretion),ED50 [1]
"CCOc1n[s+]([O-])nc1NCCSCc1ccc(CN(C)C)o1 (stereo not shown) [3-N-[2-[(5-dimethylaminomethyl-2-furanyl)methylthio]ethyl]amino-4-ethoxy-1,2,5-thiadiazole-1-oxide]",substantial gastric secretion inhibitory activity,–
"CCOC1=NS(=O)(=O)N=C1NCCSCc1ccc(CN(C)C)o1 [3-N-[2-[(5-dimethylaminomethyl-2-furanyl)methylthio]ethyl]amino-4-ethoxy-1,2,5-thiadiazde-1,1-dioxide]",substantial gastric secretion inhibitory activity,–
"CNC(=NCCSCc1[nH]cnc1C)NC#N [D, N-Cyano-N'-methyl-N''-[2-((4-methyl-5-imidazolyl)methylthio)ethyl]guanidine]",–,1.8 mg/kg
"CN(C)Cc1ccc(CSCCNc2n[nH]c(N)n2)o1 [C, 3-N-[2-[(5-Dimethylaminomethyl-2-furanyl)methylthio]ethyl]amino-5-amino-1,2,4-triazole]",–,1.1 mg/kg
